Reference: patent US20240140938A1, “PREPARATION OF TETRAHYDROINDAZOLE DERIVATIVES AS NOVEL DIACYLGLYCERIDE O-ACYLTRANSFERASE 2 INHIBITORS” (MERCK SHARP & DOHME LLC, priority 2020, published 2024)

Target: human DGAT2 (hDGAT2) (Homo sapiens (Human), UniProt Q96PD7)
Experiment: DGAT2 Enzymatic Activity Assay
Assay type: biochemical
Conditions: hDGAT2 Sf-9 membrane prep, 13C18-triolein product by LC/MS/MS
Method in brief: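 Enzyme source was membrane fractions from Sf-9 cells infected with untagged hDGAT2 baculovirus. Reactions ran at room temperature, and product 13C18-triolein was quantified by LC/MS/MS against a 13C21-triolein internal standard. % inhibition was normalised to high and low controls, and IC50 derived from it.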

[1] = 25 μM diolein, 5 μM 13C oleoyl-CoA

Chain of human DGAT2 (hDGAT2) (Q96PD7 whole entry): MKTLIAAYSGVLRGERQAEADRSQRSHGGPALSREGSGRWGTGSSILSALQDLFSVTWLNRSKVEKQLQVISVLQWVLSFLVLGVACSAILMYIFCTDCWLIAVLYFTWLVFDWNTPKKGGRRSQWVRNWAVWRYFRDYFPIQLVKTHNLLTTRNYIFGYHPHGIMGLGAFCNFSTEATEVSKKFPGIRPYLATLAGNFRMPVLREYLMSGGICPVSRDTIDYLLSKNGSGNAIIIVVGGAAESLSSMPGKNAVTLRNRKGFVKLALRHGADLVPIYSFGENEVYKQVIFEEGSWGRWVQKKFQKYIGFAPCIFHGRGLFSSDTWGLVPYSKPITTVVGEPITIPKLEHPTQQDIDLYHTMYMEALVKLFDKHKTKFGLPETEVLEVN

Row | Compound | IC50 [1] [nM] | IC50 (unit given as nm) [nM]
1 | CC(C)n1nc(-c2cccc(C3(O)CCC3)c2)c2c1C[C@H](C(=O)NC1(C)CC(F)(F)C1)CC2 [Example 103, (R)-N-(3,3-difluoro-1-methylcyclobutyl)-3-(3-(1-hydroxycyclobutyl)phenyl)-1-isopropyl-4,5,6,7-tetrahydro-1H-indazole-6-carboxamide] | > 10000 | –
2 | C[C@]1(NC(=O)[C@@H]2CCc3c(-c4cncc(OC(F)F)n4)nn(-c4ccc(F)cn4)c3C2)CCS(=O)(=O)C1 [Example 19, (R)-3-(6-(difluoromethoxy)pyrazin-2-yl)-1-(5-fluoropyridin-2-yl)-N-((S)-3-methyl-1,1-dioxidotetrahydrothiophen-3-yl)-4,5,6,7-tetrahydro-1H-indazole-6-carboxamide] | > 10000 | –
3 | O=C(NC1(CO)CCC(F)(F)C1)[C@@H]1CCc2c(-c3cccc(OC(F)F)c3)nn(-c3ccc(F)cn3)c2C1 (single isomer, unassigned) [Example 8b] | 35 | –
4 | C[C@]1(NC(=O)[C@@H]2CCc3c(-c4cccc(OC(F)F)c4)nn(C(=O)C4CC4)c3C2)CCS(=O)(=O)C1 [Example 74, (R)-1-(cyclopropanecarbonyl)-3-(3-(difluoromethoxy)phenyl)-N-((S)-3-methyl-1,1-dioxidotetrahydrothiophen-3-yl)-4,5,6,7-tetrahydro-1H-indazole-6-carboxamide] | 2910 | –
5 | C[C@]1(NC(=O)[C@@H]2CCc3c(-c4cccc(OC(F)F)c4)nn(C(=O)C4CCOCC4)c3C2)CCS(=O)(=O)C1 [Example 75, (R)-3-(3-(difluoromethoxy)phenyl)-N-((S)-3-methyl-1,1-dioxidotetrahydrothiophen-3-yl)-1-(tetrahydro-2H-pyran-4-carbonyl)-4,5,6,7-tetrahydro-1H-indazole-6-carboxamide] | > 10000 | –
6 | CC1(NC(=O)[C@@H]2CCc3c(-c4cccc(OC(F)F)c4)nn(-c4ccc(F)cn4)c3C2)CC(F)(F)C1 [Example 7, (R)-N-(3,3-difluoro-1-methylcyclobutyl)-3-(3-(difluoromethoxy)phenyl)-1-(5-fluoropyridin-2-yl)-4,5,6,7-tetrahydro-1H-indazole-6-carboxamide] | 12 | –
7 | CC1(NC(=O)C2CCc3c(-c4ccccc4Cl)nn(-c4ccc(F)cc4)c3C2)CCS(=O)(=O)C1 (stereo not shown) [Example 1, 3-(2-chlorophenyl)-1-(4-fluorophenyl)-N-(3-methyl-1,1-dioxidotetrahydrothiophen-3-yl)-4,5,6,7-tetrahydro-1H-indazole-6-carboxamide] | – | 37.9
8 | C[C@]1(NC(=O)[C@H]2CCc3c(-c4ccccc4Cl)nn(-c4ccc(F)cc4)c3C2)CCS(=O)(=O)C1 (single isomer, unassigned) [Example 1a] | 3900 | –
9 | CNS(=O)(=O)CCNC(=O)[C@@H]1CCc2c(-c3cccc(OC(F)F)c3)nn(C(C)C)c2C1 [Example 71, (R)-3-(3-(difluoromethoxy)phenyl)-1-isopropyl-N-(2-(N-methylsulfamoyl)ethyl)-4,5,6,7-tetrahydro-1H-indazole-6-carboxamide] | > 10000 | –
10 | CC(C)n1nc(-c2cc(OC(F)F)ccc2F)c2c1CC(C(=O)N[C@]1(C)CCS(=O)(=O)C1)CO2 (stereo partly drawn) [Example 123, 3-(5-(difluoromethoxy)-2-fluorophenyl)-1-isopropyl-N-((R)-3-methyl-1,1-dioxidotetrahydrothiophen-3-yl)-1,5,6,7-tetrahydropyrano[3,2-c]pyrazole-6-carboxamide] | 24.3 | –
11 | CC(n1nc(-c2cc(OCC(F)(F)F)ncc2F)c2c1C[C@H](C(=O)NC1(C#N)CCS(=O)(=O)CC1)CC2)C(C)(C)O (single isomer, unassigned) [Example 113a] | 27.8 | –
12 | CC(C(F)F)n1nc(-c2cc(OC(F)F)ccc2F)c2c1C[C@H](C(=O)NC1(C)CS(=O)(=O)C1)CC2 (single isomer, unassigned) [Example 48a] | 90.3 | –
13 | O=C(N[C@@H]1CCC[C@H]1N1CCOCC1)C1CCc2c(-c3cccc(OC(F)F)c3)nn(-c3ccc(F)cn3)c2C1 (stereo partly drawn) [Example 16, 3-(3-(difluoromethoxy)phenyl)-1-(5-fluoropyridin-2-yl)-N-((1R,2R)-2-morpholinocyclopentyl)-4,5,6,7-tetrahydro-1H-indazole-6-carboxamide] | 66.9 | –
14 | CC1(NC(=O)[C@@H]2CCc3c(-c4cc(OC(F)F)ccc4F)nn(C4CCCC4O)c3C2)CS(=O)(=O)C1 (single isomer, unassigned) [Example 114a] | 44.5 | –
15 | CC(C1CC1)n1nc(-c2cc(OC(F)F)ccc2F)c2c1C[C@H](C(=O)NC1(C)CS(=O)(=O)C1)CC2 (single isomer, unassigned) [Example 58b] | 2.5 | –
16 | CC(C)n1nc(-c2cc(OC(F)F)cnc2C(F)F)c2c1C[C@H](C(=O)NC1(C)CCS(=O)(=O)CC1)CC2 [Example 42, (R)-3-(5-(difluoromethoxy)-2-(difluoromethyl)pyridin-3-yl)-1-isopropyl-N-(4-methyl-1,1-dioxidotetrahydro-2H-thiopyran-4-yl)-4,5,6,7-tetrahydro-1H-indazole-6-carboxamide] | 296 | –
